Source: patent publication US20120282356A1, “COMPOSITIONS FOR PREVENTION AGAINST SPOILAGE BY MOULDS AND YEASTS AND USES AND PRODUCTS RELATED THERETO” (MARS INCORPORATED, priority 2009, published 2012)

Tested on: Aspergillus niger DSMZ 737
Assay: Minimum Inhibition Concentration (MIC) test in YG broth cell culture plates
Format: cell-based
Conditions: substance alone, 3 days at 30° C., no visible growth of mycelium
Method: Further tests have been conducted to establish synergistic activity of the antimycotic cocktails of the present invention. These tests are based on determination of the Minimum Inhibition Concentration (MIC).
For the tests, cell culture plates with YG broth as a base were used. Test samples were inoculated with a conidial suspension of Aspergillus niger DSMZ 737 and incubated for 3 days at 30° C. The targeted spore count was at approximately 10^5 spores/ml. As Minimal Inhibition Concentration (MIC) the concentration of active ingredient with no visible growth of mycelium in the cavity was defined. In addition, results were confirmed microscopically and in a culture on YGC plates.
To dissolve the different mixtures, one of the following media was used as appropriate: distilled water; distilled water+0.5% Tween 80; distilled water+0.4% Lecithine.

Compound | MIC (Aspergillus niger, DSMZ737, 72 h) | Minimum Inhibition Concentration (MIC)
CCCCCCCC(=O)O [caprylic acid] | 2000 µg/mL | –
O=C(O)CC(O)C(=O)O (stereo not drawn) [malic acid] | – | no MIC
cinnamon aldehyde | – | 200 ppm
